“Also recorded” adds a separate entry of the source.
Columns and labels:
[1] = system: esophageal squamous stem cells (ESO stem cells, Krt5+); assay: High throughput chemical screening and dose response on GFP-labeled stem cells; type: cell-based, human; conditions: for effect on Esophageal stem cells: in the presence of 1 μM Ponatinib
[2] = system: Barrett's stem cells (BE stem cells, Krt7+); assay: as above; type: cell-based, human; conditions: for lethality towards Barrett's stem cells: screened in the background of 1 μM Ponatinib
[3] = system: taxol-resistant ovarian stem cells; assay: Killing of taxol-resistant ovarian stem cells in vitro; type: cell-based; conditions: combination with ponatinib
[4] = system: taxol-resistant ovarian stem cells; assay: Taxol-resistant ovarian stem cell xenograft animal models; type: in vivo; conditions: combination with ponatinib
human GSK3α = human GSK3α (Homo sapiens, UniProt P49840); conditions: cited from earlier work
[5] = biological target: ERBB2 phosphorylation (T798I) (Homo sapiens, UniProt P04626, T798I); conditions: cited from earlier work
3T3-J2 feeder cells = assay: Lethality of feeder cells during treatment; type: cell-based; conditions: combination with Ponatinib
Experimental: It was next hypothesized that one chemical in our libraries could function with Ponatinib in a synergistic manner to specifically eradicate Barrett's stem cells while protecting and promoting esophageal stem cells. The same libraries were screened in the background of 1 μM Ponatinib. […] Among them, Adefovir Dipivoxil is a FDA approved drug, CEP-18770 and Qizartinib are in clinical trials. […] Their differential effects on Barrett's stem cells and Esophageal stem cells were validated in a dosage dependent manner (FIG. 2C; FIG. 3F).
The GFP-tagged cell lines will be seeded on multiple 384 well plates (Griener Bio-One, USA) (varying according to number of compounds in a library) with a feeder layer of irradiated 3T3-J2 fibroblast cells. The stem cell will be allowed to grow until they divide to become 4-5 cells within a colony. Afterwards they will be transported for treatment with selected chemical library (1 μM) to High Throughput Research and Screening Center at Institute of Biosciences and Technology (Houston, Tex.), Texas A&M University. Positive and negative control lanes will be allocated within each plate. […] The cells will be allowed to grow for 6 days at 37° C., 7.5% CO2 incubator after treatment. After the cells in the control lanes are at good confluency, the cells will be prepared for imaging. […]

STAT1 = biological target: T1, STAT1 (Homo sapiens, UniProt P42224); conditions: cited from earlier work
T1 sequence (P42224 1-750): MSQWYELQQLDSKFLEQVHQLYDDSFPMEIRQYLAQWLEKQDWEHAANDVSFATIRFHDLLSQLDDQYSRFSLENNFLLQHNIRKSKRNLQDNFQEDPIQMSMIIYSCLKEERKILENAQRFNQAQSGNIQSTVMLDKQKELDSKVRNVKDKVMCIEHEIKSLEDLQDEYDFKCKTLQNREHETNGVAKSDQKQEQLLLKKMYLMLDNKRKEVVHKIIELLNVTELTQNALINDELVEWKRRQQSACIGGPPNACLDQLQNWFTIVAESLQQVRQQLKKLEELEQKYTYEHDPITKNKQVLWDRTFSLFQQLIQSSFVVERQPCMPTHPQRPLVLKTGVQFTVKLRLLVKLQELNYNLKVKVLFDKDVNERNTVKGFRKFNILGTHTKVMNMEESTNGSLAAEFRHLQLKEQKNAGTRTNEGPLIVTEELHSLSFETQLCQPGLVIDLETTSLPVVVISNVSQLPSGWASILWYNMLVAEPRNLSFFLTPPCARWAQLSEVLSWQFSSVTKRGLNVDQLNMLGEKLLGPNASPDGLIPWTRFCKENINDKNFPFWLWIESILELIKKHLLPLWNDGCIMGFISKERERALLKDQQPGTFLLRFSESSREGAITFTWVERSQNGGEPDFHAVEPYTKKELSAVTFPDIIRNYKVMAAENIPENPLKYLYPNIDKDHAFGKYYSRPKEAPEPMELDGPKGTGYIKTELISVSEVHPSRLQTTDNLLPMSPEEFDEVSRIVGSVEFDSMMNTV

[6] = system: Barrett's stem cells and esophageal squamous stem cells xenograft; assay: Mouse xenograft of co-injected esophageal squamous and GFP labeled Barrett's stem cells; type: in vivo, mice
Source text: The effect of these chemicals on BE in a xenograft model was further examined. The esophageal squamous stem cells and GFP labeled Barrett's stem cells were mixed and co-injected into the immunodeficient mice. […] Two weeks following the treatment, the xenografts were collected and examined through histology analysis and clonogenic analysis.

[7] = system: tryptic and peptidylglutamyl activities of the proteosome; conditions: cited from earlier work
[8] = system: chymotrypsin-like activity of the proteasome; conditions: cellular; cited from earlier work
[9] = system: Barrett's stem cells (GFP) and esophageal squamous stem cells (RFP); assay: 3D air-liquid interface (ALI) co-culture of Barrett's and esophageal stem cells; type: cell-based, human; conditions: in the presence of Ponatinib
Experimental: A 3D culture model was generated to mimic Barrett's Esophagus in vitro. The esophageal squamous stem cells and Barrett's stem cells were co-cultured in the transwell insert. Following the creation of air-liquid interface, it was observed that the BE islands located among well-differentiated squamous epithelium that well recapitulated the histology of human BE in the patient. Given the similarity of this artificial model and human pathology, the hits were tested in this system to further validate them. […] The esophageal squamous stem cells were labeled with red fluorescent protein (RFP) while Barrett's stem cells were labeled with green fluorescent protein (GFP). Without the treatment, it was observed that a mixture of GFP and RFP labeled cells in culture.

[10] = system: chymotrypsin-like activity of proteasome; conditions: cited from earlier work
[11] = system: Barrett's stem cells and Esophageal stem cells; assay: Co-culture of Barrett's stem cell lines and Esophageal stem cells; type: cell-based, human; conditions: in the presence of Ponatinib
[12] = system: dysplasia and cancer stem cells; assay: Mice xenografted with dysplasia and cancer stem cells; type: in vivo; conditions: with Ponatinib
Source text: FIG. 5C. Schematic of in vivo validation of drug combinations in mice xenografted with dysplasia and cancer stem cells. Following the treatment, the xenografts were processed for histological analysis or clonogenic assays to detect the existence of stem cells.

[13] = system: BE, dysplasia and cancer stem cells; assay: 3D (ALI) culture of patient-matched BE, dysplasia and cancer stem cells; type: cell-based, human; conditions: combined with Ponatinib
Source text: FIG. 5B. Left, Scanned images of top view of BE, dysplasia and cancer stem cells (green) generated ALI structures in the presence of absence of drug combinations.

[14] = system: Barrett's, dysplasia or EAC stem cells; assay: Co-culture of esophageal stem cells with Barrett's, dysplasia or EAC stem cells; type: cell-based, human; conditions: together with 1 μM Ponatinib
Experimental: FIG. 6. Patient-matched BE, dysplasia and cancer stem cells (Krt7+, Green) were mixed with Krt5+ (red) ESO cells and co-cultured for five days and then treated with seven selected drugs together with 1 μM Ponatinib.
BE has been known to be the precursor of the dysplastic and cancerous lesions of EAC. […] Moreover, PCA analysis of Barrett's stem cells derived from 12 patients together with dysplasia, cancer and Esophageal squamous stem cells confirmed that the stem cells of dysplasia and cancer shared very similar gene expression with Barrett's stem cells (FIGS. 4A & B). […] The effects of the eight drug hits in combination with Ponatinib were tested in the cell culture of co-seeding esophageal stem cells and Barrett's, dysplasia or EAC stem cells. […] Given these three entities always co-exist in patients with EAC, our strategies of eradicating all of them could help to eliminate the chance of recurrence of EAC patients drastically.

Sequence of ERBB2 phosphorylation (T798I) (P04626 23-1255 T798I): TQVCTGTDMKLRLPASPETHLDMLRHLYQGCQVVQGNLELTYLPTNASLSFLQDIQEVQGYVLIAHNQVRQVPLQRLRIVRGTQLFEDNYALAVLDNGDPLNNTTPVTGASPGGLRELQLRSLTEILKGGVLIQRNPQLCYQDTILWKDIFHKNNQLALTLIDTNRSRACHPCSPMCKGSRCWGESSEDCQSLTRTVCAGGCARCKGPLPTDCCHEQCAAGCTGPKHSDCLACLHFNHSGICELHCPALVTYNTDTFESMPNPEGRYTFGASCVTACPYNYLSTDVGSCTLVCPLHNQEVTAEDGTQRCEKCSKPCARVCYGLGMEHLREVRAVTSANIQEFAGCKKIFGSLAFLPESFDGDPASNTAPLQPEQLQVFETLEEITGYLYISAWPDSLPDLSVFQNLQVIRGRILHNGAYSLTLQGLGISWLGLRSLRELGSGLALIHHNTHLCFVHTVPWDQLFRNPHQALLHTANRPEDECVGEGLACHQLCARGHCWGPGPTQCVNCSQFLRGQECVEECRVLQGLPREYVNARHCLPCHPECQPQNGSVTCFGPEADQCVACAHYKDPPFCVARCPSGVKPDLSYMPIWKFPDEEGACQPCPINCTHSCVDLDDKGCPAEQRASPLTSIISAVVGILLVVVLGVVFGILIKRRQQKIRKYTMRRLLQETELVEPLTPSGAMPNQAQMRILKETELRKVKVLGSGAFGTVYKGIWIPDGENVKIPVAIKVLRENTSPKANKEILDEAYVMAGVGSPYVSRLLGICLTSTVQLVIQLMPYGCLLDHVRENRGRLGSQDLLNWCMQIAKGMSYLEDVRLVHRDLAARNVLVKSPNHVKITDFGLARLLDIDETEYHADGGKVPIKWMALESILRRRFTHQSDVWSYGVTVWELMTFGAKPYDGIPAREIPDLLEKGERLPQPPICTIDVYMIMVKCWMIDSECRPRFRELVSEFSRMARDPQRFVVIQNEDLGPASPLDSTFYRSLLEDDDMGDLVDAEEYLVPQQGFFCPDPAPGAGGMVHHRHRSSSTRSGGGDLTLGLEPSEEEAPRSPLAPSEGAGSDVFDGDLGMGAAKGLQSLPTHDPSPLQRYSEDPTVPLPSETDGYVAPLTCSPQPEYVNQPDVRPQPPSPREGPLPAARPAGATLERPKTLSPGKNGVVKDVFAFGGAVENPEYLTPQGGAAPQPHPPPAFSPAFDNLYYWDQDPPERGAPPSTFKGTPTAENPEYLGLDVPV
Sequence of human GSK3α (P49840 whole entry): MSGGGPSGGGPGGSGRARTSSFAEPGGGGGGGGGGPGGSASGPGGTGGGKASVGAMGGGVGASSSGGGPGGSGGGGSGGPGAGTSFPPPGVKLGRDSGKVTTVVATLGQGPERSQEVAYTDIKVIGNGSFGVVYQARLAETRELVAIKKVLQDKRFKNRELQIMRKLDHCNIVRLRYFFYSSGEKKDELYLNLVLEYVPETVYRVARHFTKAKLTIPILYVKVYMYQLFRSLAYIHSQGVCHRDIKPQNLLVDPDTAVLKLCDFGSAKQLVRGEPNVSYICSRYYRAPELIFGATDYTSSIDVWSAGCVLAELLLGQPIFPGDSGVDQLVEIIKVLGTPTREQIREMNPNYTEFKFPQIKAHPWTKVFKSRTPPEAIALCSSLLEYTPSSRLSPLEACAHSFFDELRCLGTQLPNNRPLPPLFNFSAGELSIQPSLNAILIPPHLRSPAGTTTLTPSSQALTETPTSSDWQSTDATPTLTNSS

Cc1ccc(C(=O)Nc2ccc(CN3CCN(C)CC3)c(C(F)(F)F)c2)cc1C#Cc1cnc2cccnn12 [Ponatinib]
proliferation of esophageal stem cells ([1]; single agent screening): promoted the proliferation; also recorded: significantly increase the proliferation | survival of Barrett's stem cells ([2]; single agent screening): slightly decreasing the survival

CC(C)(C)C(=O)OCOP(=O)(COCCn1cnc2c(N)ncnc21)OCOC(=O)C(C)(C)C [Adefovir Dipivoxil]
effect on Esophageal stem cells [1]: without affecting | lethality towards Barrett's stem cells [2]: displayed the lethality

CC(=O)O[C@H]1C(=O)[C@@]2(C)[C@H]([C@H](OC(=O)c3ccccc3)[C@]3(O)C[C@H](OC(=O)[C@H](O)[C@@H](NC(=O)c4ccccc4)c4ccccc4)C(C)=C1C3(C)C)[C@]1(OC(C)=O)CO[C@@H]1C[C@@H]2O [taxol]
killing taxol-resistant ovarian stem cells [3]: synergy | tumor volume [4]: reducing tumor volume

N#Cc1ccc2[nH]c(O)c(-c3ccc(CN4CCOCC4)cn3)c2c1 [AZD1080]
Ki (human GSK3α): 6.9 nM | effect on Esophageal stem cells [1]: without affecting | lethality towards Barrett's stem cells [2]: displayed the lethality | differential effects on BE and ESO stem cells, validation over a range of dosages ([2]; together with 1 μM Ponatinib): appeared to be the false positive hit in the screening

C=CC(=O)Nc1cccc(Sc2nc(Nc3ccc(N4CCN(C)CC4)cc3)ncc2Cl)c1 [WZ8040]
effect on Esophageal stem cells [1]: without affecting | inhibition of ERBB2 phosphorylation (T798I) [5]: does not inhibit | lethality towards Barrett's stem cells [2]: displayed the lethality

CC(C)(C)c1cc(NC(=O)Nc2ccc(-c3cn4c(n3)sc3cc(OCCN5CCOCC5)ccc34)cc2)no1 [Quizartinib]
effect on Esophageal stem cells [1]: without affecting | lethality towards Barrett's stem cells [2]: displayed the lethality

CO[C@H]1CC[C@@H](O[C@H]2C[C@H]([C@]3(C)CC[C@]4(C[C@H](O)[C@@H](C)[C@@H]([C@@H](C)/C=C(\C)C(=O)[C@H](C)C[C@H](C)C(=O)O)O4)O3)O[C@]3(O[C@@H]([C@H]4O[C@@](O)(CO)[C@H](C)C[C@@H]4C)C[C@@H]3C)[C@@H]2C)O[C@H]1C [Nanchangmycin]
effect on Esophageal stem cells [1]: without affecting | lethality of 3T3-J2 feeder cells during the treatment (3T3-J2 feeder cells): high lethality | lethality towards Barrett's stem cells [2]: displayed the lethality

O=[N+]([O-])c1ccc2c(c1)S(=O)(=O)C=C2 [Stattic]
effect on Esophageal stem cells [1]: without affecting | selectivity over STAT1 (STAT1): highly selectivity | lethality towards Barrett's stem cells [2]: displayed the lethality

CC(C)C[C@H](NC(=O)[C@@H](NC(=O)c1cccc(-c2ccccc2)n1)[C@@H](C)O)B(O)O [CEP-18770, [(1R)-1-[[(2S,3R)-3-hydroxy-2-[(6-phenylpyridine-2-carbonyl)amino]butanoyl]amino]-3-methylbutyl]boronic acid]
BE stem cells in treated structures (histological analysis) ([6]; NSG mice, with Ponatinib): not detected | Krt5+ ESO structures in treated samples ([6]; NSG mice, with Ponatinib): visibly more robust | clonogenic Barrett's stem cells from xenografts ([6]; combination with Ponatinib, clonogenic analysis): lack of clonogenic Barrett's stem cells | Barrett's structures in xenografts (histology) ([6]; combination with Ponatinib, intraperitoneally, two weeks following the treatment): total loss | inhibition of the tryptic and peptidylglutamyl activities of the proteosome [7]: only marginal inhibition | effect on Esophageal stem cells [1]: without affecting | IC50 [8]: 3.8 nM | cross sections of the ALI structures [9]: intact esophageal squamous epithelium without any existence of Barrett's epithelium | GFP labeled Barrett's stem cells in 3D ALI co-culture ([9]; eight Barrett's stem cell lines): disappearance | IC50 [10]: 3.8 nM | effect on Esophageal squamous stem cells in co-culture [11]: promoting | lethality to Barrett's stem cells in co-culture ([11]; nine Barrett's stem cell lines): uniform lethality to all Barrett's stem cells | Dysplastic structures (Krt7+/Ki67+) in xenografts [12]: diminished | eradication of precancerous, dysplastic and cancerous stem cells in mouse xenograft models [12]: eradicate | stem cells cloned from treated dysplastic structures (rhodamine staining) [12]: not cloned | eradication of BE, dysplasia and cancer stem cells in 3D (ALI) culture [13]: eradicate | growth of BE, dysplasia and cancer stem cells in co-culture with ESO cells [14]: most effective | differential of dose-response curves, BE stem cells versus normal esophageal stem cells ([2]; in the background of a fixed concentration of Ponatinib): ~1,000 fold | lethality towards Barrett's stem cells [2]: displayed the lethality
